Measured values from US20250261660A1, “FORMULATIONS AND METHODS FOR USE IN OXIDATION TREATMENT APPLICATIONS” (priority 2022, published 2025).

test system: microbial control in water; experiment: Microbial control in water at slightly alkaline pH, comparison of oxidants; assay type: cell-based
From the text: In some embodiments, microbial control in water at slightly alkaline pH was compared between peracetate oxidant, chlorine bleach, peracetic acid and chlorine dioxide. Alkaline pH is encountered in a variety of applications where microbial control and sanitization is needed, including pulp and paper processing.
In some embodiments, microbial control in water at slightly alkaline pH was compared between peracetate oxidant, chlorine bleach, peracetic acid and chlorine dioxide. Alkaline pH is encountered in a variety of applications where microbial control and sanitization is needed, including water treatment and chill tanks in poultry processing, a type of food processing.

| Compound | performance as antimicrobial disinfectant |
| --- | --- |
| [O][Cl+][O-] [chlorine dioxide] | performed well |
| OCl [chlorine bleach, hypochlorite] | lowest performance |
| CC(=O)OO [peracetic acid] | lowest performance |
